Patent publication US6849596B1, “Regulatory/unfolding peptides of ezrin” (priority 1999, dated 2005)

Experiments:
[1] = system: human Peripheral Blood Mononuclear Cells; experiment: In vitro activation of human PBMC, tritiated thymidine incorporation; type: cell-based; details: three days, Control 370
Experimental: Peripheral Blood Mononuclear Cells (PBMC) were separated from the peripheral blood of a […] donor using the standard method of fractionation in a ficoll gradient. The PBMC were suspended in culture medium containing RPMI1640 medium plus 10% fetal calf serum, 1 mM L-glutamin and antibiotics (BM). The cell suspension was placed in wells of a 96 hole microwell plate for cell cultivation, (100 microliters of suspension containing 100,000 cells per well). […] The negative control well contained BM but no peptide. The plate was incubated at 37° C. for three days then radioactive ^3H thymidine was added to a final concentration of 1 microcurie per ml. The incorporation of ^3H thymidine into the DNA of the cells was measured using a betacounter using standard procedures. The experiment was repeated twice and the results expressed as an average of the two experiments in radioactive counts per minute.

[2] = system: antibody forming cells against sheep erythocytes (SRBC); experiment: Antibody forming cells against sheep erythocytes (SRBC) in mice, plaque count; type: in vivo; details: four days after SRBC, thirty mice per data point
Experimental: Activity of Hepreceptor Peptides Enhancing the Antibody-Dependent Cytotoxic Response in […] to Sheep Red Blood Cells (SRBC) in Mice
The influence of Hepreceptor peptides on the activation of antibody forming cells against sheep erythocytes (SRBC) in Mice (CBA-C57B1 Fi hybrids. 2 months old, weight 18-22 grams) was determined. Mice were first injected intraperitoneally using either 0.5 ml sterile saline as a control or Hepreceptor peptides in the same volume of saline. 30 minutes after the injection of Hepreceptor peptides, a cell suspension containing 5 million SRBC was administered intraperitoneally to each mouse. Four days after the immunisation, the mice were killed by cervical dislocation and the spleens were obtained aseptically. Each spleen was homogenised in 2 ml of Medium 199, then 100 microliters of this suspension was put into 1 ml of prepared agarose in Medium 199 (stored in water bath at 48° C.), SRBC suspension was added, resulting in a final concentration of 1% agarose. The Im1 of agarose-cell mixture was agitated then transferred to petri dish to set. When the agarose became solid, the petri dish was incubated for 1 hour at 37° C. then 0.5 ml of 1-in-20 diluted guinea pig serum in Medium 199 was added on top of agarose gel as a source of complement. The incubation was continued for another 1 hour. The dishes were then visualised using an 8×binocular microscope and the number of plaques counted (each plaque equivalent to one antibody secreting mouse spleen cell). The results were expressed both as the number of antibody secreting cells per one million nucleated spleen cells and the number of antibody secreting cells per whole spleen.
Averaged data (from thirty mice per data point) of the number of antibody forming cells per one million nucleated spleen cells. The data was re-based relative to 100 for each control group.

Salmonella typhimurium = experiment: Protection of mice from acute Salmonella typhimurium infection; type: in vivo; details: control 0%
Experimental: Laboratory mice (CBAxC57B1 F1 hybrids) were split into groups of five which either received 0.5 ml saline or 0.5 ml saline plus various concentrations of different Hepreceptor peptides (1, 10 or 100 nanograms). 24 hours later the mice were acutely infected with Salmonella typhimurium (10,000 or 100,000 bacteria injected intraperitoneally per mouse). The percent of each group of mice surviving after 20 days was recorded (lethally infected control animals were dead within three days of infection).
Percent of mouse group surviving after 20 days infection

[3] = system: IgG serum antibody response to Ovalbumin; experiment: Adjuvant activity: IgG serum antibody response to Ovalbumin in mice; type: in vivo; details: for IgG response recorded as OD: 50 micrograms Ovalbumin, two weeks, sera 1 to 100; for IgG response recorded as OD then rebased relative to 100 for each control: control = 100
Experimental: Adjuvant Activity of Hepreceptor Peptides Enhancing the IgG Serum Antibody Response to Ovalbumin in Mice
The IgG response in mice two weeks after an injection of 50 micrograms of Ovalbumin plus various concentrations of different hepreceptor peptides was determined. IgG response was measured by Optical Density (OD) of a 1 to 100 dilution of mouse sera in the presence of Ovalbumin.
IgG response recorded as OD
IgG response recorded as OD then data rebased relative to 100 for each control

[4] = IP injection 1 microgram per mouse
[5] = IP injection 10 micrograms per mouse
[6] = 10,000 bacteria per mouse, 1 nanogram peptide per mouse 24 hours before
[7] = 10,000 bacteria per mouse, 10 nanograms peptide per mouse
[8] = 10,000 bacteria per mouse, 100 nanograms peptide per mouse
[9] = 100,000 bacteria per mouse, 1 nanogram peptide per mouse
[10] = 100,000 bacteria per mouse, 10 nanograms peptide per mouse
[11] = 100,000 bacteria per mouse, 100 nanograms peptide per mouse
[12] = IP injection 0.01 micrograms per mouse
[13] = IP injection 0.1 micrograms per mouse

“TEKKRRETV (Hepreceptor peptide) [Rupe19]” was tested, and the “incorporation of 3H thymidine” value ([1]; Peptide 0.0001 micro g/ml) was 426 radioactive counts per minute, the “incorporation of 3H thymidine” value ([1]; Peptide 0.0003 micro g/ml) was 602 radioactive counts per minute and the “incorporation of 3H thymidine” value ([1]; Peptide 0.001 micro g/ml) was 718 radioactive counts per minute. For the same substance, the “incorporation of 3H thymidine” value ([1]; Peptide 0.003 micro g/ml) was 756 radioactive counts per minute, the “incorporation of 3H thymidine” value ([1]; Peptide 0.01 micro g/ml) was 545 radioactive counts per minute and the “incorporation of 3H thymidine” value ([1]; Peptide 0.03 micro g/ml) was 586 radioactive counts per minute. The “incorporation of 3H thymidine” value ([1]; Peptide 0.1 micro g/ml) was 537 radioactive counts per minute, the “incorporation of 3H thymidine” value ([1]; Peptide 0.3 micro g/ml) was 563 radioactive counts per minute and the “incorporation of 3H thymidine” value ([1]; Peptide 1 micro g/ml) was 509 radioactive counts per minute. For the same substance, the “incorporation of 3H thymidine” value ([1]; Peptide 3 micro g/ml) was 502 radioactive counts per minute and the “incorporation of 3H thymidine” value ([1]; Peptide 10 micro g/ml) was 517 radioactive counts per minute.
TEKKR (Hepreceptor peptide) [Rupe15] was tested, and the “number of antibody forming cells per one million nucleated spleen cells, re-based relative to 100 for control” value [2, 4] was 255, the “number of antibody forming cells per one million nucleated spleen cells, re-based relative to 100 for control” value [2, 5] was 134 and the “Percent of mouse group surviving after 20 days infection” value (from here on “Percent of mouse group surviving”) (Salmonella typhimurium; [6]) was 20%. For the same substance, the “Percent of mouse group surviving” value (Salmonella typhimurium; [7]) was 40%, the “Percent of mouse group surviving” value (Salmonella typhimurium; [8]) was 40% and the “Percent of mouse group surviving” value (Salmonella typhimurium; [9]) was 20%. For the same substance, the “Percent of mouse group surviving” value (Salmonella typhimurium; [10]) was 20% and the “Percent of mouse group surviving” value (Salmonella typhimurium; [11]) was 0%.
“KEELMLRLQDYEE (Hepreceptor peptide) [Rupe2032]” was tested, and the “IgG response recorded as OD” value [3, 12] was 0.509 OD, the “IgG response recorded as OD then rebased relative to 100 for each control” value [3, 12] was 401 and the “IgG response recorded as OD” value [3, 13] was 0.606 OD. The “IgG response recorded as OD then rebased relative to 100 for each control” value [3, 13] was 477, the “IgG response recorded as OD” value [3, 4] was 0.327 OD and the “IgG response recorded as OD then rebased relative to 100 for each control” value [3, 4] was 257. For the same substance, the “IgG response recorded as OD” value [3, 5] was 0.203 OD, the “IgG response recorded as OD then rebased relative to 100 for each control” value [3, 5] was 160 and the “number of antibody forming cells per one million nucleated spleen cells, re-based relative to 100 for control” value [2, 4] was 236. The “number of antibody forming cells per one million nucleated spleen cells, re-based relative to 100 for control” value [2, 5] was 232.
With “RETVEREKE (Hepreceptor peptide) [Rupe614]” the “incorporation of 3H thymidine” value ([1]; Peptide 0.0001 micro g/ml) was 464 radioactive counts per minute, the “incorporation of 3H thymidine” value ([1]; Peptide 0.0003 micro g/ml) was 503 radioactive counts per minute and the “incorporation of 3H thymidine” value ([1]; Peptide 0.001 micro g/ml) was 550 radioactive counts per minute. The “incorporation of 3H thymidine” value ([1]; Peptide 0.003 micro g/ml) was 752 radioactive counts per minute, the “incorporation of 3H thymidine” value ([1]; Peptide 0.01 micro g/ml) was 607 radioactive counts per minute and the “incorporation of 3H thymidine” value ([1]; Peptide 0.03 micro g/ml) was 538 radioactive counts per minute. The “incorporation of 3H thymidine” value ([1]; Peptide 0.1 micro g/ml) was 596 radioactive counts per minute, the “incorporation of 3H thymidine” value ([1]; Peptide 0.3 micro g/ml) was 635 radioactive counts per minute and the “incorporation of 3H thymidine” value ([1]; Peptide 1 micro g/ml) was 600 radioactive counts per minute. The “incorporation of 3H thymidine” value ([1]; Peptide 3 micro g/ml) was 499 radioactive counts per minute and the “incorporation of 3H thymidine” value ([1]; Peptide 10 micro g/ml) was 412 radioactive counts per minute.
For EREKE (Hepreceptor peptide) [Rupe1014], the “IgG response recorded as OD” value [3, 12] was 0.232 OD, the “IgG response recorded as OD then rebased relative to 100 for each control” value [3, 12] was 183 and the “IgG response recorded as OD” value [3, 13] was 0.231 OD. The “IgG response recorded as OD then rebased relative to 100 for each control” value [3, 13] was 182, the “IgG response recorded as OD” value [3, 4] was 0.477 OD and the “IgG response recorded as OD then rebased relative to 100 for each control” value [3, 4] was 376. The “IgG response recorded as OD” value [3, 5] was 0.508 OD, the “IgG response recorded as OD then rebased relative to 100 for each control” value [3, 5] was 400 and the “number of antibody forming cells per one million nucleated spleen cells, re-based relative to 100 for control” value [2, 4] was 202. For the same substance, the “number of antibody forming cells per one million nucleated spleen cells, re-based relative to 100 for control” value [2, 5] was 325.
For “EREKEQMMREKEEL (Hepreceptor peptide) [Rupe1024]”, the “IgG response recorded as OD” value [3, 12] was 0.250 OD, the “IgG response recorded as OD then rebased relative to 100 for each control” value [3, 12] was 164 and the “IgG response recorded as OD” value [3, 13] was 0.262 OD. For the same substance, the “IgG response recorded as OD then rebased relative to 100 for each control” value [3, 13] was 172, the “IgG response recorded as OD” value [3, 4] was 0.489 OD and the “IgG response recorded as OD then rebased relative to 100 for each control” value [3, 4] was 322. For the same substance, the “IgG response recorded as OD” value [3, 5] was 0.445 OD, the “IgG response recorded as OD then rebased relative to 100 for each control” value [3, 5] was 293 and the “number of antibody forming cells per one million nucleated spleen cells, re-based relative to 100 for control” value [2, 4] was 401. For the same substance, the “number of antibody forming cells per one million nucleated spleen cells, re-based relative to 100 for control” value [2, 5] was 397, the “Percent of mouse group surviving” value (Salmonella typhimurium; [6]) was 40% and the “Percent of mouse group surviving” value (Salmonella typhimurium; [7]) was 40%. For the same substance, the “Percent of mouse group surviving” value (Salmonella typhimurium; [8]) was 40%, the “Percent of mouse group surviving” value (Salmonella typhimurium; [9]) was 0% and the “Percent of mouse group surviving” value (Salmonella typhimurium; [10]) was 20%. The “Percent of mouse group surviving” value (Salmonella typhimurium; [11]) was 40%.
